From article PMC9851200, “Multiparameter phenotypic screening for endogenous TFEB and TFE3 translocation identifies novel chemical series modulating lysosome function” (Autophagy, 2022)
Entries after “also recorded” stand apart in the source; their conditions may differ. Like-named read-outs stand apart in the source and are kept apart here.

How the values were obtained:
SH-SY5Y cells [1] = tested on: SH-SY5Y cells
Excerpt: The PKIS2 Library was supplied by The Structural Genomics Consortium at the University of North Carolina at Chapel Hill.

endogenous TFEB = assay: TFEB nuclear translocation, immunocytochemistry high-content imaging; assay type: cell-based; conditions: for TFEB %: PKIS2 primary screening
endogenous TFE3 = assay: TFE3 nuclear translocation, immunocytochemistry high-content imaging; assay type: cell-based; conditions: for TFE3 %: PKIS2 primary screening; for Best-Fit Values Span: TFE3 assay concentration response; for Best-Fit Values Span / EC50: 24 h; for EC50: TFE3 assay, read-out: Best-Fit Values EC50 (converted); for Summary: activity in TFE3 assays compared with original NK-140, OT activity
SH-SY5Y cells [2] = assay: AK (adenylate kinase) release ToxiLight cytotoxicity assay; conditions: for Cellular toxicity (AK release and nuclear count, in words): SH-SY5Y, 24 h treatment; for AK: PKIS2 primary screening
Description: Total cell lysis with 5 µL 5% Triton-X 100 (Sigma-Aldrich, T8787) is used as a positive control for the assay and toxicity is expressed as a percentage of luminescence under DMSO conditions.

SH-SY5Y cells [3] = assay: Nuclear count from microscopy images (cellular growth and toxicity); conditions: PKIS2 primary screening
[4] = PKIS2 primary screening, DQ Red BSA intensity
[5] = PKIS2 primary screening, DQ Red BSA spot count
[6] = SH-SY5Y, concentration-dependent

Compound	TFEB % (endogenous TFEB)	TFE3 % (endogenous TFE3)	DQ Intensity (SH-SY5Y cells [1]; [4])	DQ Spot (SH-SY5Y cells [1]; [5])	AK (SH-SY5Y cells [2])	Nuclear Count (SH-SY5Y cells [3])	further results
CC(=O)Nc1ccc(C(=O)Nc2ccccc2N)cc1 [CI-994, Tacedinaline, reference compound]							DQ Red BSA signal (in words) (SH-SY5Y cells [1]; SH-SY5Y, 24 h treatment): robustly increase DQ Red BSA puncta signal; DQ Red BSA spot count / active lysosome count (in words) (SH-SY5Y cells [1]; SH-SY5Y, 24 h treatment): increases
O=C1NCCCc2c1oc1ccc(O)cc21 [CID755673, reference compound]							TFEB translocation (in words) (endogenous TFEB): no TFEB and TFE3 translocation; also recorded: no effect across these assays; TFE3 translocation (in words) (endogenous TFE3): no TFEB and TFE3 translocation; also recorded: no effect across these assays; DQ Red BSA signal (in words) (SH-SY5Y cells [1]): no TFEB and TFE3 translocation, alteration in DQ Red BSA signal or toxicity; also recorded: no effect across these assays; Cellular toxicity (AK release and nuclear count, in words) (SH-SY5Y cells [2]): no TFEB and TFE3 translocation, alteration in DQ Red BSA signal or toxicity; also recorded: no effect across these assays
O=C(Nc1ccc(CN2CCOCC2)cc1)c1ccc(-c2cccc(Cl)c2)o1 [CID2011756, reference compound]							TFEB translocation (in words) (endogenous TFEB): some TFEB and TFE3 translocation only at 20 µM; also recorded: induced TFEB and TFE3 translocation only alongside marked lysosomal and cellular toxicity at 20 µM; TFE3 translocation (in words) (endogenous TFE3): some TFEB and TFE3 translocation only at 20 µM; also recorded: induced TFEB and TFE3 translocation only alongside marked lysosomal and cellular toxicity at 20 µM; DQ Red BSA signal (in words) (SH-SY5Y cells [1]): some reduction of DQ Red BSA signal; Lysosomal toxicity (in words) (SH-SY5Y cells [1]; human): marked lysosomal and cellular toxicity at 20 µM; Cellular toxicity (AK release and nuclear count, in words) (SH-SY5Y cells [2]): marked lysosomal and cellular toxicity at 20 µM
Clc1cc(Cl)cc(Nc2ccnc(Nc3cc(Cl)cc(Cl)c3)n2)c1 [GSK175726]	3.77%	10.08%	98.51	117.48	105.62	91.70	
Cc1ccc(S(=O)(=O)Nc2ccc(Nc3nccc(Nc4cccc5[nH]ncc45)n3)cc2)cc1 [GSK581271]	3.93%	6.80%	132.42	120.36	89.43	129.24	
Nc1nccc(-c2ccc3c(N)n[nH]c3c2)n1 [GSK1034945]	3.25%	14.89%	84.11	101.09	117.83	141.53	
COc1ccc(Nc2nccc(-c3ccc(NC(=O)c4cc5cc(F)ccc5[nH]4)cc3)n2)cc1 [GSK1229496]	5.47%	10.21%	79.73	89.01	76.92	129.71	
Cc1cccc(-c2nc(Nc3ccc4ncn(C)c4c3)c3ccccc3n2)n1 [NK173]							Best-Fit Values Span (endogenous TFE3; SH-SY5Y): 80.89; EC50 (endogenous TFE3; SH-SY5Y, second EC50 of biphasic/bell-shaped fit or OT (off-target) activity, unit inferred): 1.92 µM; Summary (endogenous TFE3): Only OT activity
Cc1cccc(-c2nc(Nc3ccc4[nH]ccc4c3)c3ccccc3n2)n1 [NK218]							Best-Fit Values Span (endogenous TFE3; SH-SY5Y): 20.78; EC50 (endogenous TFE3; SH-SY5Y, µM): 0.42 µM; Summary (endogenous TFE3): More Potent
CC(C)c1nc(-c2cccc(NS(=O)(=O)c3ccccc3)c2)c(-c2ccnc(Nc3ccc4c(c3)CN(C)CC4)n2)s1 [UNC10225068A]		63.29%			114.97	76.87	DQ Intensity (SH-SY5Y cells [1]; PKIS2 primary screening): 3.98; DQ Spot (SH-SY5Y cells [1]; PKIS2 primary screening): 39.66
Cc1cnc(N)c(/C=C/c2cncc(C(=O)NCCc3ccc(Cl)cc3Cl)c2)c1.Cl [UNC10225238A]			95.52	99.30			
C[C@@H](Oc1cc(-n2cnc3cc(-c4cnn(C)c4)ccc32)sc1C(N)=O)c1ccccc1Cl [UNC10225416A]	18.53%	8.07%			104.83		DQ Intensity (SH-SY5Y cells [1]): 219.18; DQ Spot (SH-SY5Y cells [1]): 124.35
CCN(CC)CCCC(C)Nc1ccnc2cc(Cl)ccc12 (stereo not drawn) [chloroquine, reference compound]							TFEB translocation from the cytoplasm to the nucleus (% nTFEB) (endogenous TFEB; [6]): > 80%; TFE3 translocation from the cytoplasm to the nucleus (% nTFE3) (endogenous TFE3; [6]): > 80%; DQ Red BSA signal (in words) (SH-SY5Y cells [1]; SH-SY5Y, 24 h treatment): greatly reduced; DQ Red BSA spot count / active lysosome count (in words) (SH-SY5Y cells [1]; SH-SY5Y, 24 h treatment): reduces
